Experimental findings from patent US4450167A, “3-Quinoline carboxamides having anxiolytic activity” (Roussel Uclaf, priority 1981, dated 1984) are described below.

The target in this test is benzodiazepine receptors. The test can be described thus: Affinity for benzodiazepine receptors (3H Diazepam displacement, rat cortex membranes). It is filed as binding. To be noted: rat brain cortex membranes, 3H Diazepam 10^-9 moles, 0° C., 30 minutes; read-out: CI50, concentration inhibiting by 50% the specific bonding of 3H diazepam. Here is the method: The test was inspired by Mohler et al [Science, No. 198 (1977), p. 849-851] in which the cortex was removed from the brains of male rats weighing an average of 150 g and homogenized at a ratio of 1 part by weight per 20 parts by volume of 0.32 M sucrose. The homogenized mixture was centrifuged at 1000 g for 10 minutes at 0° C. and the surnageant was centrifuged at 30,000 g for 20 minutes at 4° C. The culot was suspended in 20 volumes of Tris HCl 50 mM buffer with a pH of 7.4 and the suspension was centrifuged at 30,000 g for 20 minutes at 4° C. The resulting culot was suspended in 50 ml of Krebs Tris HCl buffered at a pH of 7.4 and 2 ml of the suspension was incubated at 0° C. for 30 minutes in the presence of ^3 H Diazepam at a concentration of 10^-9 moles with increasing concentration of the test product to determine the non-specificfixation with non-radioactive Diazepam at a concentration of 10^-6 moles.
The incubated suspensions were filtered through a Whatman GF/C filter and the filters were washed twice with 5 ml of Krebs Tris HCl buffer at a pH of 7.4 not 0° C. The radioactivity of the filters was measured by liquid scintillation and the affinity of the test product for benzodiazepine receptors was expressed in CI50 or the concentration inhibiting by 50% the specific bonding of ^3 H diapezam.
Take `CCOc1ccc(NC(=O)c2cnc3ccccc3c2O)cc1` [Example 1, 4-hydroxy-N-(4-ethoxyphenyl)-3-quinoline-carboxamide]: the IC50 came to 40 nM.

With `COc1ccc(NC(=O)c2cnc3ccccc3c2O)cc1` [Example 6, 4-hydroxy-N-(4-methoxyphenyl)-3-quinoline-carboxamide], the IC50 worked out at 7.5 nM.

For the compound `O=C(Nc1ccc(O)cc1)c1cnc2ccccc2c1O` [Example 7, 4-hydroxy-N-(4-hydroxyphenyl)-3-quinoline-carboxamide], the IC50 came out at 4.4 nM.

On to `CCNC(=O)c1cnc2ccccc2c1O` [Example 8, 4-hydroxy-N-ethyl-3-quinoline-carboxamide], for which the IC50 turned out to be 11 nM. `CCCCNC(=O)c1cnc2ccccc2c1O` [Example 9, 4-hydroxy-N-butyl-3-quinoline-carboxamide]: the IC50 worked out at 3.7 nM.

Consider `CCCCCCNC(=O)c1cnc2ccccc2c1O` [Example 10, 4-hydroxy-N-n-hexyl-3-quinoline-carboxamide], for which the IC50 is 6.7 nM. Take `COc1ccccc1NC(=O)c1cnc2ccccc2c1O` [Example 13, 4-hydroxy-N-(2-methoxy-phenyl)-3-quinoline-carboxamide]: the IC50 is 54 nM. `COc1cccc(NC(=O)c2cnc3ccccc3c2O)c1` [Example 16, 4-hydroxy-N-(3-methoxy-phenyl)-3-quinoline-carboxamide]: the IC50 is 6.6 nM. For the compound `COc1ccc(NC(=O)c2c(C)nc3ccccc3c2O)cc1` [Example 23, 4-hydroxy-N-(4-methoxyphenyl)-2-methyl-3-quinoline-carboxamide], the IC50 worked out at 23 nM. The figure for `CCCNC(=O)c1cnc2ccccc2c1O` [Example 24, 4-hydroxy-N-propyl-3-quinoline-carboxamide] is 1.2 nM.
